# Test results taken from patent publication US8992890B2, “Absorbent dressings with painkilling activity” (Fidia Farmaceutici S.p.A., priority 2011, dated 2015).
# Assay: Release of diclofenac from the formulation, in vitro, Franz cell, rabbit plasma
# Format: in vitro ADME
# Description: The evaluation of the release kinetics of Diclofenac from the formulation was conducted with a Franz cell, comparing the release of the diclofenac contained in the formulation described in example 1 with an identically formulated composition containing diclofenac sodium (DCFNa) instead of diclofenac acid, at the same percentage.
# The Franz cell is an instrument known to the skilled person; briefly, and very simply, it consists of two chambers, the lower one being called the receptor, while the upper one is called the donor. The two cells are separated by a porous membrane and connected to one another; the medium in which the diffusion of the active ingredient in question will be evaluated is loaded into the receptor chamber, and the product to be evaluated is loaded into the donor chamber. The medium flows against the separator membrane, and therefore comes into contact with the product loaded into the donor chamber; the active constituent spreads through the membrane to the receptor chamber, from which aliquots are sampled for testing to determine the extent of release of the active ingredient.
# In this specific case, the receptor chamber was loaded with rabbit plasma (10.2 ml); approx. 73 mg of the formulation of Example 1 based on diclofenac acid (DCF/H+), accurately weighed, was placed in the donor chamber, distributed on a cellulose acetate membrane with a porosity (cut-off) of 0.2μ, wetted with rabbit plasma, and an area of 3.46 cm2. When the operating procedures of the Franz cell had been activated, 0.3 ml samples of rabbit serum were taken from the receptor chamber, which was topped up with fresh serum from time to time. The diclofenac is determined by spectrophotometric analysis, calibrating the instrument with rabbit plasma to take account of the effect of the medium on the release of the medicament.
# The same procedure was followed to measure the release of diclofenac sodium (DCF/Na) formulated identically to the formulation of Example 1 in qualitative and quantitative terms.
Compound,duration of release (formulation of Example 1),"drug released after approx. 8 hours (formulation of Example 1, approx. 8 hours)",time within which the drug is exhausted (formulated identically to Example 1 (0.8%)),"medicament released in the first 4 hours (formulated identically to Example 1 (0.8%), first 4 hours)"
O=C(O)Cc1ccccc1Nc1c(Cl)cccc1Cl [diclofenac acid],at least 48 hours,60%,–,–
O=C(O)Cc1ccccc1Nc1c(Cl)cccc1Cl [diclofenac sodium],–,–,≤ 24 h,over 90%
